This is an account of results in patent US11882834B2, “Microbiocidal thiazole derivatives” (SYNGENTA PARTICIPATIONS AG, priority 2017, dated 2024).

Test [1] has as its system Mycosphaerella arachidis (Cercospora arachidicola). Nature of the test: Mycosphaerella arachidis (Cercospora arachidicola) / liquid culture (early leaf spot). In kind it is cell-based. Particulars: 200 ppm in the formulation; liquid culture (PDB), growth determined photometrically 4-5 days after application; compared to untreated. As for the experimental part: Mycosphaerella arachidis (Cercospora arachidicola)/Liquid Culture (Early Leaf Spot) Conidia of the fungus from cryogenic storage are directly mixed into nutrient broth (PDB potato dextrose broth). After placing a (DMSO) solution of test compound into a microtiter plate (96-well format), the nutrient broth containing the fungal spores is added. The test plates are incubated at 24° C. and the inhibition of growth is determined photometrically 4-5 days after application.

The test system of test [2] is Phaeosphaeria nodorum (Septoria nodorum). Nature of the test: Phaeosphaeria nodorum (Septoria nodorum) / wheat / leaf disc preventative (glume blotch). To be noted: 200 ppm in the formulation, wheat leaf segments cv. Kanzler, compared to untreated, 5-7 days after application. In kind it is in vivo. As for the experimental part:
Phaeosphaeria nodorum (Septoria nodorum)/Wheat/Leaf Disc Preventative (Glume Blotch) Wheat leaf segments cv. Kanzler are placed on agar in a multiwell plate (24-well format) and sprayed with the formulated test compound diluted in water. The leaf disks are inoculated with a spore suspension of the fungus 2 days after application. The inoculated test leaf disks are incubated at 20° C. and 75% rh under a light regime of 12 h light/12 h darkness in a climate cabinet and the activity of a compound is assessed as percent disease control compared to untreated when an appropriate level of disease damage appears in untreated check leaf disks (5-7 days after application).

With `Cc1sc(Nc2cc(F)nc(F)c2)nc1C(=O)NC1CCC1(C)C` (centres unmarked) [Compound I.r.19, 2-[(2,6-difluoro-4-pyridyl)amino]-N-(2,2-dimethylcyclobutyl)-5-methyl-thiazole-4-carboxamide], the disease control result in test [1] and in test [2] was “at least 80%” in each case.
